According to patent US8715709B2, “Sustained release intraocular implants and methods for treating ocular neuropathies” (Allergan, Inc., priority 2004, dated 2014):
Counter-ions that a name gives are not always drawn. Like-named read-outs stand apart in the source and are kept apart here.

What was measured:
[1] = in vivo; details: rabbit
Text: Sampling was done from the anterior chamber for the first five animals after 1 hr, 3 hr, 6 hr, 12 hr, and 24 hr, and from both the anterior chamber and posterior segment of the remaining five animals after 1 hr, 3 hr, 6 hr, 24 hr, and 48 hr. One animal was used for each time point.

[2] = aqueous / dissolution medium (0.9% saline), cited from earlier work

Row | clearance in the posterior segment compared with anterior chamber (in words) [1] | half-life [1] [h] | SMILES | levels in the anterior chamber from posterior segment bolus injection (in words) [1] | solubility in aqueous medium (in words) ([2]; listed as timolol maleate) | solubility in aqueous medium (in words) [2]
1 | relatively slower clearance rate | ~1.43 | CC(C)(C)NC[C@H](O)COc1nsnc1N1CCOCC1 [Timolol Maleate, (−)-1-(tert-butylamino)-3-[(4-morpholino-1,2,5-thiadiazo-3-yl)oxy]-2-propanol maleate, (1:1) salt] | the levels were small and considered insignificant | high water solubility | 
2 |  |  | CC(C)(C)NC[C@H](O)COc1nsnc1N1CCOCC1 [Timolol freebase] |  |  | less soluble
